# Experimental data reported in publication PMC5361737, “Potent and Selective KDM5 Inhibitor Stops Cellular Demethylation of H3K4me3 at Transcription Start Sites and Proliferation of MM1S Myeloma Cells” (Cell Chemical Biology, 2017).
# “Also recorded” adds a separate entry of the source.
# Tests used:
# GAL2 (h) = GAL2 (h) (Homo sapiens, UniProt O43603); test: Cerep Express Panel, agonist radioligand; assay type: binding; details: read-out: % Inhibition of reference (10 µM)
# [1] = Liver microsomes stability; assay type: in vitro ADME; details: rat liver microsomes
# NK2 (h) = NK2 (h) (Homo sapiens, UniProt P21452); test: Cerep Express Panel, agonist radioligand; assay type: binding; details: read-out: % Inhibition of reference (10 µM)
# NK2 (h), sequence (P21452 whole entry): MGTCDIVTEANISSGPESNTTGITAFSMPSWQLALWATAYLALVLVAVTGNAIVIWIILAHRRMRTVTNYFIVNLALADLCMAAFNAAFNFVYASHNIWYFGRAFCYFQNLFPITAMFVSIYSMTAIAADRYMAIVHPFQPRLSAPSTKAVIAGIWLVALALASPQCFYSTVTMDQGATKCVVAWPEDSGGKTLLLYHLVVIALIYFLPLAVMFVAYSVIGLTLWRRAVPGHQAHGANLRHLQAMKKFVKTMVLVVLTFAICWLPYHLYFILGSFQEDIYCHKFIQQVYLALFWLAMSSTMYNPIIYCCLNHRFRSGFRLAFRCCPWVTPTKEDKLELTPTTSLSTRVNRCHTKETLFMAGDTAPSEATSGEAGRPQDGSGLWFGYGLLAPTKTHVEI
# [2] = test system: MM1S multiple myeloma cells; test: Fluorescent cell-viability assay (PrestoBlue); assay type: cell-based, human
# Procedure: MM1S myeloma cells were cultured in RMPI with 10% heat-inactivated FCS and 2 mM glutamine under standard conditions. […] Viability was measured using PrestoBlue reagent and normalized to a vehicle control. Data were plotted and IC50 values were calculated in Prism (v5.1).
# MC4 (h) = MC4 (h) (Homo sapiens, UniProt P32245); test: Cerep Express Panel, agonist radioligand; assay type: binding; details: read-out: % Inhibition of reference (10 µM)
# MC4 (h), sequence (P32245 whole entry): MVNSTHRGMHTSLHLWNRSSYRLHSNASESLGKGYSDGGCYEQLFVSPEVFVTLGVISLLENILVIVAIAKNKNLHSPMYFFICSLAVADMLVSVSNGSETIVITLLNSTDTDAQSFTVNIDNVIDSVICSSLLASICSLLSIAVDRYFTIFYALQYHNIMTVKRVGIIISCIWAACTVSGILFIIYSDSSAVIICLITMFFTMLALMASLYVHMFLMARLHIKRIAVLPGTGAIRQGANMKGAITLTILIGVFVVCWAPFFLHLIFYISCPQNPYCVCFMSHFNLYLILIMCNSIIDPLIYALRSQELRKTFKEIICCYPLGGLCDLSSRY
# [3] = test system: other tested JmjC family members; test: IF assay, HeLa cells overexpressing other JmjC family members; assay type: cell-based, human; details: overexpression IF assay, 24 hr
# Text: The human cervical carcinoma cell line HeLa was obtained from the American Type Cultures Collection and maintained in Eagle's minimal essential media (Sigma-Aldrich) supplemented with 10% heat-inactivated fetal bovine serum (Life Technologies). Full-length cDNA for KDM5B (JARID1B, Q9UGL1, cDNA), KDM5C (JARID1C, P41229, IMAGE 5492114), KDM4B (JMJD2B, O94953, gift from ICR), KDM4C (JMJD2C, Q9H3R0, 8143862), KDM3A (JMJD1A, Q9Y4C1, 4823253), KDM2A (FBXL11, Q9Y2K7, 5534384), and KDM6B (JMJD3, O15054, cDNA) were amplified by PCR from either an MGC clone or a commercial cDNA source, or received as a gift from collaborators and cloned into pDONR-221 vector using Gateway BP reaction producing Gateway entry clones.
# […]. Mutations were introduced into full-length KDM Gateway entry clones using 15 cycles of the QuikChange II PCR protocol (Agilent Technologies). […]
# In brief, cells were transiently transfected with either the FLAG-tagged WT or mutant demethylase described above, using Lipofectamine 2000 (Life Technologies). […] After the DAPI-stained nuclei were automatically identified, a minimum threshold for anti-FLAG intensity was set so that only cells highly expressing the demethylase were analyzed. […]
# [4] = Chemical stability in Phosphate Buffer Saline; assay type: physicochemical; details: PBS, 37°C, 24 hr
# alpha 2 (non-selective) = test: Cerep Express Panel, antagonist radioligand; assay type: binding
# VPAC1 (VIP1) (h) = VPAC1 (VIP1) (h) (Homo sapiens, UniProt P32241); test: Cerep Express Panel, agonist radioligand; assay type: binding; details: read-out: % Inhibition of reference (10 µM)
# VPAC1 (VIP1) (h), sequence (P32241 31-457): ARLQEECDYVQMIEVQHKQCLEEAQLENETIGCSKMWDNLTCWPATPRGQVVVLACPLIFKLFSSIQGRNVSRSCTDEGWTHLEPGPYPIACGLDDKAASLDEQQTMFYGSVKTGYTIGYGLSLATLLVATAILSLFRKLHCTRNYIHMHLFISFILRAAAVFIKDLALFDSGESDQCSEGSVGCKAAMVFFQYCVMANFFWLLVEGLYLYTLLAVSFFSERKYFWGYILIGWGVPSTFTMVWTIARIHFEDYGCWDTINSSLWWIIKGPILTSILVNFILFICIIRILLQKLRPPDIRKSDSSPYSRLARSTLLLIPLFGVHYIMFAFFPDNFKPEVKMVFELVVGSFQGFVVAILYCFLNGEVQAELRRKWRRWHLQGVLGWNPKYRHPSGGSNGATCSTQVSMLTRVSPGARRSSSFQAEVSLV
# A3 (h) = A3 (h) (Homo sapiens, UniProt P0DMS8); test: Cerep Express Panel, agonist radioligand; assay type: binding; details: read-out: % Inhibition of reference (10 µM)
# A3 (h), sequence (P0DMS8 whole entry): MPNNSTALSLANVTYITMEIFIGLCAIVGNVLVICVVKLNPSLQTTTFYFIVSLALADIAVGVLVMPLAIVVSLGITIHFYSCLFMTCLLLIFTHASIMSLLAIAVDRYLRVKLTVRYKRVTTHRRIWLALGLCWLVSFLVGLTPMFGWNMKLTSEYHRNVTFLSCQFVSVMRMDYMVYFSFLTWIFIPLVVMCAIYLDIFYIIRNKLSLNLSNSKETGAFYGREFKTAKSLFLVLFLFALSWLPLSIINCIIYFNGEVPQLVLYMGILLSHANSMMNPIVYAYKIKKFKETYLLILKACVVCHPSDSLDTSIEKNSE
# SKCa channel = test: Cerep Express Panel, antagonist radioligand; assay type: binding
# KDM2A = target: T1, KDM2A (Homo sapiens, UniProt Q9Y2K7); test: 2-Oxoglutarate oxygenase assay panel, AlphaScreen assay; assay type: biochemical; details: refers to Table S1
# T1 sequence (Q9Y2K7 1-1162): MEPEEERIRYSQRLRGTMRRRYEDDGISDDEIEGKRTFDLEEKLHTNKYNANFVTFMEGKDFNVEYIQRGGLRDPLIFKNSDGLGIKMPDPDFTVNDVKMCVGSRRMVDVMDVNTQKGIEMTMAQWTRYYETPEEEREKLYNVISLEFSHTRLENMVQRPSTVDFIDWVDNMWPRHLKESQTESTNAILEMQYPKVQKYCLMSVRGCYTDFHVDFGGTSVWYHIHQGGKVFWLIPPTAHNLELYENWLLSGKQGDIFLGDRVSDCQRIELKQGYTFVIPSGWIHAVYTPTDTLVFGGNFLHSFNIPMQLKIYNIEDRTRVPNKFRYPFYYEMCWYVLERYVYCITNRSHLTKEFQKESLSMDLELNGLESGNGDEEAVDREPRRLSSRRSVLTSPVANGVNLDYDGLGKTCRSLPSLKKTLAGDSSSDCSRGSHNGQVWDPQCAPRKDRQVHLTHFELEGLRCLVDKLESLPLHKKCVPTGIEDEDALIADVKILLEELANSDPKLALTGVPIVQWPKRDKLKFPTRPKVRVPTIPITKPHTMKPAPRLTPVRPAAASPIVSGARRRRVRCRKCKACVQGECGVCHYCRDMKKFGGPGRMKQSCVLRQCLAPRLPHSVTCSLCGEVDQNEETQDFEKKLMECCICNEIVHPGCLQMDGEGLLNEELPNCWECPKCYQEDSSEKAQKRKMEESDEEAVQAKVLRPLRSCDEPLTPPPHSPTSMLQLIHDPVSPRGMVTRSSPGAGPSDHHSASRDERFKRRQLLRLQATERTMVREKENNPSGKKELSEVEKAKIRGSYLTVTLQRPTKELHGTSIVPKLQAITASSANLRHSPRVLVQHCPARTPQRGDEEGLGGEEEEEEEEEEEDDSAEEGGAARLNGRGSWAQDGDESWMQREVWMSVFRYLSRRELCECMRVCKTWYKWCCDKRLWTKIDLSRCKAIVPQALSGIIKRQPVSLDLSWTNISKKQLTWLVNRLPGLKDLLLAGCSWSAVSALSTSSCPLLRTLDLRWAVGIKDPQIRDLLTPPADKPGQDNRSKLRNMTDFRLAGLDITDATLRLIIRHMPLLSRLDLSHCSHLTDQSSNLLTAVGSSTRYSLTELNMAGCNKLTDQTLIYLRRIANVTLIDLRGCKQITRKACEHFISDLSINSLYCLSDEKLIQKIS
# GAL2 (h), sequence (O43603 whole entry): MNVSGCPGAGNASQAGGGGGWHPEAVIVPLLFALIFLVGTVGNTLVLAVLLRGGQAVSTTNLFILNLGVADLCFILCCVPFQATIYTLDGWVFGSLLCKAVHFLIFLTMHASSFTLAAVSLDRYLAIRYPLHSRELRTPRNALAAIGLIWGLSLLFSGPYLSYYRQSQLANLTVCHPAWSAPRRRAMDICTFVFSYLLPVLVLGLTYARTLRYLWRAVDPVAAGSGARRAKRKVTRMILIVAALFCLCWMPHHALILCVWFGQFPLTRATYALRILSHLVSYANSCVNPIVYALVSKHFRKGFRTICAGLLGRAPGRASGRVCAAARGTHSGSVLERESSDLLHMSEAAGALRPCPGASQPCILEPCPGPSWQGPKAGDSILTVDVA
smiles,measurement,setting,value
CCN(CCN(C)C)C(=O)CNCc1cc(C(N)=O)ccn1 [KDOAM-25],inhibition at 10 µM,GAL2 (h),-4%
same,"intrinsic clearance, in words",[1],low intrinsic clearance
same,microsomal CLint,[1]; read-out: RLM Clint,< 1 µL/min/mg
same,inhibition at 10 µM,NK2 (h),3%
same,IC50,"[2]; Homo sapiens, MM1.S, after a delay of 5–7 days",~30 µM
same,"effect on cell viability, in words","[2]; MM1S, after 3 days",little effect on cell viability
same,inhibition at 10 µM,MC4 (h),5%
same,cellular activity on other tested JmjC family members,[3],no cellular activity; also recorded: no effect
same,"hydrolysis of the amide, in words",[4],did not show any hydrolysis
same,% Inhibition of reference (10 µM),alpha 2 (non-selective),-11%
same,inhibition at 10 µM,VPAC1 (VIP1) (h),-12%
same,inhibition at 10 µM,A3 (h),-6%
same,% Inhibition of reference (10 µM),SKCa channel,5%
same,KDM2A IC50,KDM2A,4.4 µM
